Laboratory results as given in patent US20160128926A1, “COMPOSITIONS AND METHODS FOR TREATING NAILS, CLAWS, AND HOOFS” (TOPICAL SOLUTIONS, INC., priority 2013, published 2016).

Assays:
[1] = target: T1, hFP prostaglandin receptor (Homo sapiens, UniProt P43088); assay: Competition binding assay (Reference Example 1), cited as the method for Example 1
T1 construct: expressed in transfected cells; host or cells: COS 7 cells transiently transfected (pCR 3.1 vector); the summary sentence instead says stably transfected CHO-KI cells
T1 sequence (P43088 whole entry): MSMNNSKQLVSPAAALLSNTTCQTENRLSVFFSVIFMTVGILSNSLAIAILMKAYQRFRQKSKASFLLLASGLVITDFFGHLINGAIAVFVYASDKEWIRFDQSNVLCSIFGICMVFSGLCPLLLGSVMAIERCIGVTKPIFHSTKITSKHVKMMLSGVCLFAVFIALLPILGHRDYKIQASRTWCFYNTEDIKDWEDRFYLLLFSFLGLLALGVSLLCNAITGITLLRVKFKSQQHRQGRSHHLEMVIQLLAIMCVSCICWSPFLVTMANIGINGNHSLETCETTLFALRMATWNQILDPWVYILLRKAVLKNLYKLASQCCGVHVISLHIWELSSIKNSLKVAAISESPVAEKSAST

[2] = test system: Prostanoid F receptor family and the Prostanoid E1 receptor family; assay: R-SAT functional assay (Reference Example 2), cited as the method for Example 2; type: cell-based; settings: 23 Days
Text: Without intending to be limited by theory, there are two principal prostaglandin receptor families that control nail growth: the Prostanoid F receptor family and the Prostanoid E1 receptor family. Potential at these receptors in measured in two types of assays-binding assays and functional assays. The functional assay is described herein and the binding assay is above as Reference Example 1.
There are many functional assays available, for example, growth in Swiss 3T3 cells. Preferred is the R-SAT system. R-SAT is a cell-based assay system where genes are transferred to cultured cells. The functional activity of the gene products, or potential drug targets, are then evaluated through signal transduction pathways that lead to cellular growth. The growth signals are reported using marker gene technologies. Thus, effects of drugs on potential drug targets can be efficiently detected as changes in color or fluorescence. R-SAT enables the efficient screening of large compound libraries for identification of new chemistries at given targets, as well as detailed pharmacological testing of compounds at a wide range of targets, as described in MESSIER, T., DORMAN, C. M.; BRAUNEROSBORNE, H.; EUBANKS, D. & BRANN, M. R. (1995) Pharmacol. and Toxicol. 76 308-311, incorporated herein by reference.
was tested according to the method of Reference Example 2.

Structure (SMILES)	Average Grades ([1]; 23 Days)	Average Grades ([1]; 25 Days)	Average Grades ([1]; 26 Days)	Average Grades [2]
CC(C)OC(=O)CCCCCC[C@@H]1[C@@H](CCC(O)CSc2ccccc2)[C@H](O)C[C@@H]1O (stereo partly shown) [Example 1]	0.4	0.1	0.7	
COC(=O)CCCCCC[C@@H]1[C@@H](CCC(O)CSc2ccccc2Br)[C@H](O)C[C@@H]1O (stereo partly shown) [Example 2]				0.1
